{
  "source": "patent US20060210479A1",
  "about": "(Dow Global Technologies Inc., priority 2004, published 2006)",
  "key": {"LNCaP cell line": {"system": "LNCaP cell line", "test": "Chelate permeability: fluorescence of cytoplasm and membrane fractions", "type": "cell-based, human"}, "T84 cell line": {"system": "T84 cell line", "test": "Chelate permeability: fluorescence of cytoplasm and membrane fractions", "type": "cell-based, human", "details": "1 mM chelate, 2 h, Table 1"}, "Caco-2 cell line": {"system": "Caco-2 cell line", "test": "Chelate permeability: fluorescence of cytoplasm and membrane fractions", "type": "cell-based, human"}, "RBL-2H3 cell line": {"system": "RBL-2H3 cell line", "test": "Chelate permeability: fluorescence of cytoplasm and membrane fractions", "type": "cell-based, rat", "details": "0-2000 μM, 2 hours", "method": "Tb-PCTMB (Tb(III) 3,6,9-tris(methylene phosphonic acid n-butyl ester)-3,6,9,15-tetraazabicyclo[9.3.1]pentadeca-1(15),11,13-triene) was tested for permeability to abnormal and disease-state cells.\nRBL-2H3 is a rat basophilic leukemia cell line. These cells were grown in Iscove's Medium supplemented with 2 mM L-glutamnine, penicillin/streptomycin (100 IU/mL, 100 μg/mL) and 10% FBS. Cells were maintained at 5% CO2 and 95% humidity. PZ-HPV-7 cell line was derived from epithelial cells cultured from normal prostate tissue. They were grown in Keratinocyte-Serum Free Medium with human recombinant EGF and bovine pituitary extract supplemented with 50 μg/mL gentamicin and penicillin/streptomycin (100 IU/mL, 100 μg/mL). All media and supplements were purchased from Gibco BRL (Grand Island, N.Y., USA). All cell lines were obtained from ATCC and were maintained at 37° C., 5% CO2 and 95% humidity.\nCells were grown to confluence in T-150 flasks (about 2×10^6 cells). […] Cells were then removed from the flask by manual scraping. Cells were transferred to a 50-mL conical tube and centrifuged (400×g) for 5 minutes and the test material removed.\nCells were grown as described herein (Example 1). Cells were grown to confluence in T-150 flask (about 2×10^6 cells). […] Cells were then removed from the flask by manual scraping. Cells were transferred to a 50-mL conical tube and centrifuged (400×g) for 5 minutes and the test material removed.\nFurthermore, one analogue, QCTMP (FIG. 26), having lesser lipophilic character (a free phosphonic acid moiety) was evaluated. […] In this study, the cytoplasm and membrane fractions were extracted by Mem-PER Eukaryotic Membrane Protein Extraction Reagent Kit as described by the manufacturers (Pierce Biotechnology, Rockford, Ill.) and analyzed by a Fluor-S Multilmager."}, "[1]": {"system": "PZ-HPV-7 normal cell line", "test": "Chelate permeability: fluorescence of cytoplasm and membrane fractions", "type": "cell-based", "details": "PZ-HPV-7"}, "[2]": {"system": "HEK293 cells, normal (non-induced)", "test": "Permeability of chelates to HEK293 cells, fluorescence of fractions", "type": "cell-based, human", "details": "HEK293 Normal; 1 mM chelate, 2 hours", "method": "(§1) The human kidney transformed HEK293 cells (obtained from the ATCC) were grown in Eagle's Minimum Essential Medium (EMEM) supplemented with 10% (v/v) heat-inactivated fetal bovine serum, sodium pyruvate, nonessential amino acids and antibiotics in a humidified 5% CO2 atmosphere at 37° C. Medium and supplements were purchased from Gibco bRL (Grand Island, N.Y.). Etoposide was obtained from Sigma (St. Louis, Mo.) and prepared as 20 mM solution in dimethyl sulfoxide (DMSO). For treatments, etoposide was applied to the HEK293 cultures at 1:1000 dilution (final concentration of 20 μM) after cell became 75% confluent. As a control, cells were fed with medium containing 0.1% DMSO in the absence of etoposide. After treatment with etoposide, cells were incubated in a humidified 5% CO2 at 37° C. for 24 hours. HEK293 cells were collected by removing treatment medium and washed 2 times with 10 mM HEPES buffer. Final cell pellets were resuspended in a small amount of HEPES and stored at 4° C. for further study.\n(§2) Cells were grown to confluence in T-150 flasks (about 2×10^6 cells). […] After treatment, the chelate or analogue supernatant was discarded and the cells were rinsed three times at room temperature with 10 mM HEPES. Cells were then removed from the flask by manual scraping. Cells were transferred to a 50-mL conical tube and centrifuged (400×g) for 5 minutes and the test material removed. Remaining cells were rinsed twice with cold 10 mM HEPES. Cells were used in cell binding assays."}, "[3]": {"system": "etoposide-induced (apoptotic) HEK293 cells", "test": "Permeability of chelates to apoptotic cells, fluorescence of fractions", "type": "cell-based, human", "method": "as §1, §2"}, "[4]": {"system": "cancer cells (LNCaP, Caco-2, T84)", "test": "Chelate permeability and specificity, cancer cells versus normal cells (summary)", "type": "cell-based, human", "details": "cancer cells"}, "[5]": {"system": "DMBA-induced tumor tissue of buccal cheek pouch", "details": "2 mM solution topical, 10 minutes; for Fluorescence/mg Cytoplasm / Fluorescence/mg Membrane: readings Adjusted Volume CNT*mm2"}, "[6]": {"system": "normal cheek pouch tissue", "details": "2 mM solution topical, 10 minutes, readings Adjusted Volume CNT*mm2"}, "HSPC194": {"target": "HSPC194 (Homo sapiens, UniProt Q9P0S9)", "sequence (Q9P0S9 whole entry)": "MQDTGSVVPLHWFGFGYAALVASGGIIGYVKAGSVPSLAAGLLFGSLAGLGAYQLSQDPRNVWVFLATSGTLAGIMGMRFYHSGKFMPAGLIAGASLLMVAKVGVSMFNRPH", "details": "LNCaP, T84, Caco-2, RBL-2H3; 2 hours", "quoted_text": "Cell samples were lysed in parallel by sonication or by lysis in hypotonic buffer. Cell fractions were collected from discontinuous sucrose gradients and from separate Percoll gradients, after ultracentrifugation.\nFollowing fractionation, each sample was lyophilized to enrich the sample.\nThe resulting tryptic peptides were analyzed directly by mass spectrometry. Peptide mass fingerprints were generated for the identification of the protein, and MALDI-PSD was used to sequence Fragments T3, T4, T5, and T6. The resulting data were used to search GenBank for a human protein having or a nucleic acid encoding, an amino acid sequence matching this set of peptides."}, "[7]": {"system": "cancer cell lines (LNCaP, T84, Caco-2, RBL-2H3) and healthy control cells"}, "[8]": {"details": "0-2000 μM, 2 hours, compared to PZ-HPV-7"}},
  "note": "Where two headings read alike, the source gives them in different places.",
  "data": [
    {"smiles": "CCCCOP(=O)([O-])CN1CCN(CP(=O)([O-])OCCCC)Cc2cccc(n2)CN(CP(=O)([O-])OCCCC)CC1.[Tb+3]", "note": "[Tb-PCTMB, Tb(III) 3,6,9-tris(methylenephosphonic acid n-butyl ester)-3,6,9,15-tetraazabicyclo[9.3.1]pentadeca-1(15),11,13-triene]", "values": [
      {"measurement": "fluorescence in the cytoplasm, dose response", "setting": "LNCaP cell line; [8]", "value": "significant increases in fluorescence"},
      {"measurement": "Fluorescence/mg Cytoplasm", "setting": "LNCaP cell line; 1 mM chelate, 2 h, Table 1", "value": 616.8},
      {"measurement": "Fluorescence/mg Membrane", "setting": "LNCaP cell line; 1 mM chelate, 2 h, Table 1", "value": 448.9},
      {"measurement": "Fluorescence/mg Cytoplasm", "setting": "T84 cell line", "value": 476.4},
      {"measurement": "Fluorescence/mg Membrane", "setting": "T84 cell line", "value": 355.5},
      {"measurement": "fluorescence in the membrane fractions, dose response", "setting": "Caco-2 cell line; 0-2000 μM, 2 hours", "value": "detectable quantity of fluorescence"},
      {"measurement": "fluorescence in the cytoplasm, dose response", "setting": "Caco-2 cell line; [8]", "value": "significant increases in fluorescence"},
      {"measurement": "Fluorescence/mg Cytoplasm", "setting": "Caco-2 cell line; 1 mM chelate, 2 h, Table 1", "value": 481.6},
      {"measurement": "Fluorescence/mg Membrane", "setting": "Caco-2 cell line; 1 mM chelate, 2 h, Table 1", "value": 398.6},
      {"measurement": "fluorescence in the membrane fractions, dose response", "setting": "RBL-2H3 cell line", "value": "detectable quantity of fluorescence"},
      {"measurement": "fluorescence in the cytoplasm, dose response", "setting": "RBL-2H3 cell line; compared to PZ-HPV-7", "value": "significant increases in fluorescence"},
      {"measurement": "detectability in normal cells", "setting": "[1]", "value": "significantly less detectable"},
      {"measurement": "Fluorescence/mg Membrane", "setting": "[2]", "value": 925},
      {"measurement": "permeability to apoptotic induced HEK293 cells", "setting": "[3]", "value": "permeable"},
      {"measurement": "Fluorescence/mg Membrane", "setting": "[3]; HEK293 Apoptotic (etoposide 20 μM, 24 hours), 1 mM chelate, 2 hours", "value": 949},
      {"measurement": "permeability to cell membranes", "setting": "[4]", "value": "permeable to cancer cell membranes"},
      {"measurement": "fluorescence in the cytoplasm of tumor tissue compared to normal tissue", "setting": "[5]", "value": "significantly greater fluorescence"},
      {"measurement": "Fluorescence/mg Cytoplasm", "setting": "[5]; Tumor 1", "value": 3014},
      {"measurement": "Fluorescence/mg Membrane", "setting": "[5]; Tumor 1", "value": 1331},
      {"measurement": "Fluorescence/mg Cytoplasm", "setting": "[5]; Tumor 2", "value": 3064},
      {"measurement": "Fluorescence/mg Membrane", "setting": "[5]; Tumor 2", "value": 1484},
      {"measurement": "Fluorescence/mg Cytoplasm", "setting": "[6]; Normal 1", "value": 1138},
      {"measurement": "Fluorescence/mg Membrane", "setting": "[6]; Normal 1", "value": 1126},
      {"measurement": "Fluorescence/mg Cytoplasm", "setting": "[6]; Normal 2", "value": 1117},
      {"measurement": "Fluorescence/mg Membrane", "setting": "[6]; Normal 2", "value": 1125},
      {"measurement": "binding to protein expressed in cancer cell lines (HSPC194, about 15 kDa)", "setting": "HSPC194", "value": "binds specifically to a single protein"},
      {"measurement": "localization in cancer cell lines, confocal fluorescence microscopy", "setting": "[7]", "value": "localized throughout the cytoplasm"},
      {"measurement": "presence in healthy (control) cells, confocal fluorescence microscopy", "setting": "[7]", "value": "not present"}
    ]}
  ]
}
